Reference: patent publication US11897898B2, “Pyridine macrocycle compounds as ASK1 inhibiting agents” (BIOGEN MA INC., priority 2018, dated 2024)

Columns and labels:
[1] = biological target: T1, ASK1/MAP3K5 (Homo sapiens, UniProt Q99683); experiment: ASK1 enzyme assay (ASK1/MAP3K5 assay by Reaction Biology Corp., 33P-ATP filter-binding); type: biochemical; settings: 20 μM myelin basic protein and 10 μM ATP; class symbols
T1 construct: purchased Reaction Biology Corp. (Malvern, Pa.)
T1 sequence (Q99683 1-1374): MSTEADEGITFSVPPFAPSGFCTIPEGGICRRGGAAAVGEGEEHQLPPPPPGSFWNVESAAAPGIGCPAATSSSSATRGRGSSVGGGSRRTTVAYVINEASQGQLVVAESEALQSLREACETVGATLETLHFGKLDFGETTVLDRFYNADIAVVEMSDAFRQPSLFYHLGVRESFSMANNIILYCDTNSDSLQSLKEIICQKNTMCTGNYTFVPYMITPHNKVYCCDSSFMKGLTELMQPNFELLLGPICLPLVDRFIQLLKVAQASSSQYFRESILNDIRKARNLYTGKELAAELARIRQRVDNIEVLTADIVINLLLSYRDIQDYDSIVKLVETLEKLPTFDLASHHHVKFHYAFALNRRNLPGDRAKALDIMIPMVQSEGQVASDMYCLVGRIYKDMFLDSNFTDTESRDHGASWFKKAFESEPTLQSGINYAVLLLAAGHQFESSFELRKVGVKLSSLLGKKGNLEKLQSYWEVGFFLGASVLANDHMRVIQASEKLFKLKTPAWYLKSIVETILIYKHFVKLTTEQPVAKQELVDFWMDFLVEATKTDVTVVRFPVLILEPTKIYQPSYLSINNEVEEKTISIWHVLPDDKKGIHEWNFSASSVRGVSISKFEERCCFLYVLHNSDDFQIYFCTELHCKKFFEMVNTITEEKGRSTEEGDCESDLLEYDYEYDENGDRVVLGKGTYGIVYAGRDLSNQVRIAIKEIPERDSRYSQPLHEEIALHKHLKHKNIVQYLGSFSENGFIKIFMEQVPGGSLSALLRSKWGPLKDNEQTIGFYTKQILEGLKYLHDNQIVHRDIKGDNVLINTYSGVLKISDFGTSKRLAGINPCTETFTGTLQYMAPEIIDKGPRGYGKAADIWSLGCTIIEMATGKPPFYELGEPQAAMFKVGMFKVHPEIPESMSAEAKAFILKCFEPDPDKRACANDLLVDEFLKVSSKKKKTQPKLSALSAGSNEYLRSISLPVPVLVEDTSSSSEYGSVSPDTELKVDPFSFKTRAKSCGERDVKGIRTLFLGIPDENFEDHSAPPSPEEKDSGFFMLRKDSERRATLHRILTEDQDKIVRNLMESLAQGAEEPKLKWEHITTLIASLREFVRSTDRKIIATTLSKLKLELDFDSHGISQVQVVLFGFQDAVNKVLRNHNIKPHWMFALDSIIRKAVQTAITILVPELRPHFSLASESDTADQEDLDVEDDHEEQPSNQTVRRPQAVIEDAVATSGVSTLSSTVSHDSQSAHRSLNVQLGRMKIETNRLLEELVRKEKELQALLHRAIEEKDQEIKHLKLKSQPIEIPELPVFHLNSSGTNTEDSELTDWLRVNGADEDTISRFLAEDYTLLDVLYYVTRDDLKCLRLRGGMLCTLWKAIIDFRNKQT
Method in brief: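 Human ASK1/MAP3K5 in pH 7.5 Hepes buffer with 20 μM myelin basic protein and 10 μM 33P-ATP; compounds preincubated with kinase 20 min at room temperature. Reaction ran 2 h at room temperature; substrate phosphorylation measured by P81 filter binding.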

[2] = biological target: T2, ASK1 T838 auto phosphorylation (Homo sapiens, UniProt Q99683); experiment: ASK1 (AUTO PHOS T838) assay in HEK-293T cells, MSD format; type: cell-based; settings: HEK-293T cells transfected with ASK1-V5, 1 hr compound incubation; class symbols
T2 construct: ASK1-V5 tagged full length plasmid; expressed in transfected cells; host or cells: HEK-293T
T2 sequence (Q99683 1-1374): T1 sequence (Q99683 1-1374)
Method in brief: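 HEK-293T cells transiently expressing full-length V5-tagged ASK1, treated 1 h at 37 °C with compound (top 20 µM, 3-fold, 10 points). Lysates captured on anti-V5 and probed with anti-pASK1 T838 in MSD electrochemiluminescence format. IC50 from 4-parameter fit of normalized % activity.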

For `C[C@H]1CCCOc2ncc(Br)cc2C(=O)Nc2cccc(n2)-c2nncn21` (single isomer, unassigned) [Compound 1], the IC50 [1] was ≤ 0.1 µM and the IC50 [2] was ≤ 0.1 µM.

In the case of `C[C@H]1CCCOc2ncc(-c3ccncc3)cc2C(=O)Nc2cccc(n2)-c2nncn21` [Compound 17, (S)-10-Methyl-5^5-(pyridin-4-yl)-1^4H-6-oxa-3-aza-2(2,6),5(3,2)-dipyridina-1(3,4)-triazolacyclodecaphan-4-one], the IC50 [1] is reported as ≤ 0.1 µM and the IC50 [2] is reported as ≤ 0.1 µM.

In the case of `C[C@H]1CCCOc2ncc(C(F)(F)F)cc2C(=O)Nc2cccc(n2)-c2nncn21` (single isomer, unassigned) [Compound 41], the IC50 [1] is reported as ≤ 0.1 µM and the IC50 [2] is reported as 0.1 to 1 µM.

For `C[C@H]1CCCOc2ncccc2C(=O)Nc2cccc(n2)-c2nncn21` (single isomer, unassigned) [Compound 4], the IC50 [1] was ≤ 0.1 µM and the IC50 [2] was 0.1 to 1 µM.

With `C[C@H]1CCCOc2ncc(C#N)cc2C(=O)Nc2cccc(n2)-c2nncn21` [Compound 38, (S)-10-Methyl-4-oxo-1^4H-6-oxa-3-aza-2(2,6),5(3,2)-dipyridina-1(3,4)-triazolacyclodecaphane-5^5-carbonitrile] the IC50 [1] was ≤ 0.1 µM and the IC50 [2] was 0.1 to 1 µM.
